Laboratory results: ChEMBL document CHEMBL1157045, “Study of a cyclopamine glucuronide prodrug for the selective chemotherapy of glioblastoma” (Eur J Med Chem, 2010)
Activity calls are given as the source filed them. The rule behind the calls is not given here.

Columns and labels:
[1] = Cytotoxicity against human U87 cells assessed as viability in presence of beta glucuronidase; type: functional, cell-based, U-87MG ATCC; settings: U-87 MG
U-87MG ATCC = experiment: Cytotoxicity against human U87 cells assessed as viability at 200 uM after 5 days by MTS assay; type: functional, cell-based

Row | SMILES | IC50 [1] [µM] | Activity (U-87MG ATCC)
1 | CC1=C2C[C@H]3[C@@H](CC=C4C[C@@H](O)CC[C@@]43C)[C@@H]2CC[C@]12O[C@@H]1C[C@H](C)CN[C@H]1[C@H]2C [CYCLOPAMINE] | 15.5 | 
2 | CC1=C2C[C@H]3[C@@H](CC=C4C[C@@H](O)CC[C@@]43C)[C@@H]2CC[C@]12O[C@@H]1C[C@H](C)CN(C(=O)OCc3ccc(O[C@@H]4O[C@H](C(=O)O)[C@@H](O)[C@H](O)[C@H]4O)c([N+](=O)[O-])c3)[C@H]1[C@H]2C | 21 | inactive
